Assay results from the NIST ThermoML archive (doi:10.1016/j.jct.2013.04.017).

Assay: mn = molality of the nth substance listed, in mol/kg
Conditions: 101 kPa, Liquid, fixed-path interferometer

O=C(O)CC(O)(CC(=O)O)C(=O)O [citric acid] + O
speed of sound [m/s]
Conditions | 288.15 K | 293.15 K | 298.15 K | 303.15 K | 308.15 K | 313.15 K | 318.15 K | 323.15 K
m1 = 0.1003 | 1469.9 | 1485.9 | 1499.4 | 1510.9 | 1521 | 1529.8 | 1537.2 | 1542.6
m1 = 0.2504 | 1477.4 | 1492.5 | 1505.5 | 1516.2 | 1525.8 | 1533.9 | 1540.5 | 1545.9
m1 = 0.5006 | 1490.5 | 1504 | 1516.1 | 1525.7 | 1533.9 | 1541.2 | 1546.1 | 1550.7
m1 = 0.9988 | 1515 | 1526.4 | 1535.8 | 1543.3 | 1549.4 | 1554.9 | 1558.2 | 1561.1
m1 = 1.502 | 1538 | 1547.1 | 1554.4 | 1560.8 | 1565.6 | 1569.5 | 1572 | 1573.3
m1 = 2.023 | 1560.3 | 1567.1 | 1572.5 | 1576.7 | 1579.8 | 1582.2 | 1583.7 | 1582.6
m1 = 2.502 | 1578.8 | 1584.1 | 1587.9 | 1590.5 | 1592.4 | 1593.7 | 1593.9 | 1592.9
m1 = 3.006 | 1595.4 | 1598.9 | 1603 | 1603 | 1603.6 | 1603.8 | 1599.9 | 1598.2
m1 = 3.505 | 1613.1 | 1615.3 | 1616.7 | 1615.6 | 1615.2 | 1614.2 | 1612.6 | 1609.7
m1 = 3.998 | 1626.2 | 1628.7 | 1629.1 | 1626.7 | 1622.6 | 1621 | 1618.9 | 1615.4
m1 = 4.506 | 1640.7 | 1636.7 | 1641 | 1637.8 | 1635.5 | 1632.7 | 1629.6 | 1625.3
m1 = 4.997 | 1654.7 | 1653.3 | 1651.3 | 1648.6 | 1640.1 | 1635.7 | 1632.1 | 1626.1
